# Measured values as given in ChEMBL document CHEMBL3045146, “Synthesis and biological activity of novel phenyltriazolinone derivatives” (2010).
# Active and inactive are the calls of the source. The rule behind the calls is not given here.
# What was measured:
# Amaranthus retroflexus = test: Herbicidal activity against Amaranthus retroflexus assessed as growth inhibition at 150 g/ha; format: functional, organism-based
# Brassica juncea = test: Herbicidal activity against Brassica juncea assessed as growth inhibition at 150 g/ha; format: functional, organism-based
# Poa annua = test: Herbicidal activity against Poa annua assessed as growth inhibition at 150 g/ha; format: functional, organism-based
# Echinochloa crus-galli = test: Herbicidal activity against Echinochloa crus-galli (barnyard grass) assessed as growth inhibition at 150 g/ha; format: functional, organism-based
# Digitaria sanguinalis = test: Herbicidal activity against Digitaria sanguinalis (hairy crabgrass) assessed as growth inhibition at 150 g/ha; format: functional, organism-based
# Eclipta prostrata = test: Herbicidal activity against Eclipta prostrata assessed as growth inhibition at 150 g/ha; format: functional; conditions: for inhibition of growth at 150 g/ha: read-out: GI
Compound,growth inhibition (GI) (Amaranthus retroflexus),growth inhibition (GI) (Brassica juncea),growth inhibition (GI) (Poa annua),growth inhibition (GI) (Echinochloa crus-galli),growth inhibition (GI) (Digitaria sanguinalis),growth inhibition (GI) (Eclipta prostrata),inhibition of growth at 150 g/ha (Eclipta prostrata) [%]
CO/N=C(/C(=O)OC)c1ccccc1Cn1c(C)nn(-c2cc(NS(C)(=O)=O)c(Cl)cc2F)c1=O,inactive,inactive,inactive,inactive,inactive,inactive,–
CO/C=C(/C(=O)OC)c1ccccc1Cn1c(C)nn(-c2cc(NS(C)(=O)=O)c(Cl)cc2Cl)c1=O,inactive,inactive,inactive,inactive,inactive,inactive,–
CO/C=C(/C(=O)OC)c1ccccc1Cn1c(C)nn(-c2cc(NS(C)(=O)=O)c(Cl)cc2F)c1=O,inactive,inactive,inactive,inactive,inactive,inactive,–
CO/N=C(/C(=O)OC)c1ccccc1Cn1c(C)nn(-c2cc(NS(=O)(=O)c3ccccc3)c(Cl)cc2Cl)c1=O,inactive,inactive,inactive,inactive,inactive,–,70
COC(=O)N(OC)c1ccccc1Cn1c(C)nn(-c2cc(NS(=O)(=O)c3ccccc3)c(Cl)cc2Cl)c1=O,inactive,inactive,Active,Active,Active,inactive,–
CCS(=O)(=O)Nc1cc(-n2nc(C)n(Cc3ccccc3/C(=N\OC)C(=O)OC)c2=O)c(Cl)cc1Cl,inactive,inactive,inactive,inactive,inactive,inactive,–
CCS(=O)(=O)Nc1cc(-n2nc(C)n(Cc3ccccc3N(OC)C(=O)OC)c2=O)c(F)cc1Cl,inactive,inactive,inactive,inactive,inactive,–,70
COC(=O)N(OC)c1ccccc1Cn1c(C)nn(-c2cc(NS(C)(=O)=O)c(Cl)cc2Cl)c1=O,inactive,inactive,inactive,inactive,inactive,inactive,–
CCS(=O)(=O)Nc1cc(-n2nc(C)n(Cc3ccccc3N(OC)C(=O)OC)c2=O)c(Cl)cc1Cl,inactive,inactive,Active,Active,Active,inactive,–
CO/N=C(/C(=O)OC)c1ccccc1Cn1c(C)nn(-c2cc(NS(C)(=O)=O)c(Cl)cc2Cl)c1=O,inactive,inactive,inactive,inactive,inactive,inactive,–
COC(=O)N(OC)c1ccccc1Cn1c(C)nn(-c2cc(NS(=O)(=O)c3ccccc3)c(Cl)cc2F)c1=O,inactive,inactive,inactive,inactive,inactive,inactive,–
CO/N=C(/C(=O)OC)c1ccccc1Cn1c(C)nn(-c2cc(NS(=O)(=O)c3ccccc3)c(Cl)cc2F)c1=O,inactive,inactive,inactive,inactive,inactive,inactive,–
CCS(=O)(=O)Nc1cc(-n2nc(C)n(Cc3ccccc3/C(=C\OC)C(=O)OC)c2=O)c(Cl)cc1Cl,inactive,inactive,inactive,inactive,inactive,inactive,–
CO/C=C(/C(=O)OC)c1ccccc1Cn1c(C)nn(-c2cc(NS(=O)(=O)c3ccccc3)c(Cl)cc2F)c1=O,inactive,inactive,inactive,inactive,inactive,inactive,–
CCS(=O)(=O)Nc1cc(-n2nc(C)n(Cc3ccccc3/C(=C\OC)C(=O)OC)c2=O)c(F)cc1Cl,inactive,inactive,inactive,inactive,inactive,inactive,–
CO/C=C(/C(=O)OC)c1ccccc1Cn1c(C)nn(-c2cc(NS(=O)(=O)c3ccccc3)c(Cl)cc2Cl)c1=O,inactive,inactive,inactive,inactive,inactive,inactive,–
COC(=O)N(OC)c1ccccc1Cn1c(C)nn(-c2cc(NS(C)(=O)=O)c(Cl)cc2F)c1=O,inactive,inactive,inactive,inactive,inactive,–,70
